tested on: Cortical neurone; test: Protective effect against L-glutamate-induced neurotoxicity in rat primary cortical neurons at 10 uM by trypan blue exclusion method; type: functional

Row | Compound | Activity [%]
1 | C[S+]([O-])CC1C[C@]23CC[C@H]1C[C@H]2[C@]1(C)CCC[C@@](C)(C(=O)O)[C@H]1CC3 (stereo partly specified) | 18.1
2 | CSC[C@H]1[C@H]2CC[C@@]3(CC[C@H]4[C@@](C)(CCC[C@@]4(C)C(=O)O)[C@@H]3C2)[C@@H]1O | 39.8
3 | C[S+]([O-])C[C@H]1[C@H]2CC[C@@]3(CC[C@@H]4[C@](C)(CO)CCC[C@@]4(C)[C@@H]3C2)[C@@H]1O (stereo partly specified) | 7.79
4 | C[S+]([O-])C[C@H]1[C@H]2CC[C@@]3(CC[C@@H]4C(C)(C)CCC[C@@]4(C)[C@@H]3C2)[C@@H]1O (stereo partly specified) | 13.1
5 | C[S+]([O-])CC1=C[C@]23CC[C@H]1C[C@H]2[C@]1(C)CCC[C@@](C)(C(=O)O)[C@H]1CC3 (stereo partly specified) | 15.6
6 | COC(=O)[C@]1(C)CCC[C@@]2(C)[C@@H]3C[C@@H]4CC[C@@]3(CC[C@@H]21)[C@H](O)[C@H]4C[S+](C)[O-] (stereo partly specified) | 20.5
7 | C[S+]([O-])C[C@@H]1C(=O)[C@]23CC[C@H]1C[C@H]2[C@]1(C)CCC[C@@](C)(C(=O)O)[C@H]1CC3 (stereo partly specified) | 41.5
8 | C[S+]([O-])C[C@@H]1[C@H]2CC[C@@]3(CC[C@H]4[C@@](C)(CCC[C@@]4(C)C(=O)O)[C@@H]3C2)[C@H]1O (stereo partly specified) | 33.7
9 | C[C@@]12CCC[C@@](C)(C(=O)O)[C@H]1CC[C@@]13CC[C@@H](C[C@@H]21)[C@H](CS(C)(=O)=O)[C@H]3O | 20
10 | C[S+]([O-])C[C@H]1[C@H]2CC[C@@]3(CC[C@H]4[C@@](C)(CCC[C@@]4(C)C(=O)O)[C@@H]3C2)[C@@H]1O (stereo partly specified) [SEROFENDIC ACID] | 45.3

tested on: Cortical neurone; test: Protective effect against L-glutamate-induced neurotoxicity in rat primary cortical neurons at 1 uM by trypan blue exclusion method; type: functional

Row | Compound | Activity [%]
11 | C[C@]12N[C@H](Cc3ccccc31)c1ccccc12.O=C(O)/C=C\C(=O)O [DIZOCILPINE MALEATE] | 80.7
